We go through 3 molecules from US10710988B2, “Piperazine derivative” (Astellas Pharma Inc., priority 2016, dated 2020).

The target in one assay is T1, human MC1 receptor (Homo sapiens, UniProt Q01726).
T1 construct: expressed in transfected cells; host or cells: FreeStyle 293-F cells (transient, electroporation)
Nature of the assay: Human MC1 receptor activation, cAMP production in cells transiently expressing the receptor. Particulars: FreeStyle 293-F cells expressing human MC1 receptor, α-MSH maximum = 100%. It is filed as cell-based. The text has this: (§1) (1) Construction of Human MC Receptor-Expressing Vector
(§2) A human MC4 receptor gene (GenBank Accession No.: NM_005912.2), a human MC1 receptor gene (GenBank Accession No.: NM_002386.3), or a human MC3 receptor gene (GenBank Accession No.: NM_019888.3) was introduced into an expression vector pcDNA™ 3.1N/V5-His TOPO (registered trademark) (Thermo Fisher Scientific Inc).
(§3) (2) Construction of Cells Transiently Expressing Human MC Receptor
(§4) An expression vector for a human MC4, MC1, or MC3 receptor was introduced into FreeStyle™ 293-F cells (Thermo Fisher Scientific Inc., product number: R790-07). For the introduction, electroporation was employed. That is, 1×10^7 FreeStyle™ 293-F cells were suspended in 80 μL of an Electroporation Buffer (Thermo Fisher Scientific Inc., product number: B201-100), and 20 μg of the expression vector was added thereto. The resultant was put into a cuvette (OC-100 Processing Assembly, MaxCyte, Inc.) and electroporated with MaxCyte STX (registered trademark) (MaxCyte, Inc.). The cells were cultured for a day, suspended in a Cell Banker (registered trademark) 1 (TAKARA BIO INC. or JUJI FIELD Inc., product number: BLC-1), and stored frozen until they were used.
(§5) (3) Measurement of Amount of cAMP Production
(§6) Measurement was carried out by using a LANCE (registered trademark) Ultra cAMP Kit (PerkinElmer, Inc.) in accordance with the attached instructions. That is, after dissolution in DMSO, the test compound (a final concentration of 1 pM to 30 μM) diluted with an assay buffer (Hank's balanced salt solution, 5 mM 4-(2-hydroxyethyl)-1-piperazineethanesulfonic acid (HEPES), 0.5 mM 3-isobutyl-1-methylxanthine (IBMX), 0.1% bovine serum albumin, pH 7.4), or α-MSH (Bachem Inc., a final concentration of 1 pM to 30 μM) was added to OptiPlate-384 (PerkinElmer, Inc.). Furthermore, the suspension of the cells transiently expressing the human MC4, MC1, or MC3 receptor prepared using the assay buffer was added thereto at 1,000 cells/well, and then left to stand at room temperature for about 1 hour. Thereafter, an Eu-cAMP tracer solution and an ULight™-anti-cAMP solution were added thereto, and then the resulting solution was left to stand at room temperature for about 1 hour. The amount of cAMP was calculated using EnVision (registered trademark) (PerkinElmer Inc.).
(§7) For the agonistic activity, the efficacy (EC50 (μM)) was calculated by a non-linear regression method with a Sigmoid-Emax model, by defining the maximum reaction using α-MSH as 100% and the reaction using the vehicle alone as 0%, respectively.

Another assay has as its target T2, human MC3 receptor (Homo sapiens, UniProt P41968).
T2 construct: expressed in transfected cells; host or cells: FreeStyle 293-F cells (transient, electroporation)
Nature of the assay: Human MC3 receptor activation, cAMP production in cells transiently expressing the receptor. The class given is cell-based. To be noted: FreeStyle 293-F cells expressing human MC3 receptor, α-MSH maximum = 100%.
From the text: as §1, §2, §3, §4, §5, §6, §7

The test system of assay [1] is phenylephrine-induced urethral pressure increase. Nature of the assay: Effect on rat urethral pressure (phenylephrine-induced urethral pressure increase). It is filed as in vivo. To be noted: read-out: ID40. The method, then:
The present Test Example was performed by partially modifying the technique reported as a testing system for evaluating a urethral resistance-reducing action (European Journal of Pharmacology, 679, 127-131 (2012)). Male Wistar rats (Charles River Laboratories Japan, Inc.) were anesthetized with urethane (1.2 g/kg ip), and immobilized in a supine position. The midline incision was performed in the lower abdominal portion such that the bladder was exposed. The bladder apex was incised, and from the incision site, a microchip pressure transducer catheter (3.5 Fr, Millar, Inc) was inserted and implanted into the inside of the urethra. In addition, a cannula for drug administration was implanted into the femoral vein. After the urethral pressure was stabilized, phenylephrine hydrochloride (Sigma-Aldrich Co. LLC., 30 μg/kg) was intravenously administered to induce an increase in the urethral pressure. At an interval of about 30 minutes, the above operation was repeated twice or more so as to confirm the stability of the phenylephrine hydrochloride-induced urethral pressure increasing reaction. Then, a test compound (dissolved in 20% dimethyl acetamide, 10% Cremophor (registered trademark), and 70% physiological saline) was intravenously administered, and after 5 minutes, phenylephrine hydrochloride was administered. The procedure of the administration of the test compound and the administration of phenylephrine hydrochloride was repeated at an interval of about 30 minutes, and 3 to 5 doses of the test compound was evaluated (the test compound was administered at increasing doses). The obtained data was introduced into a personal computer through PowerLab (registered trademark) (ADInstruments, Inc.) and analyzed using LabChart (registered trademark) (ADInstruments, Inc.). For the evaluation, the value (AUC value, mmHg-s) of the area under the urethral pressure for one minute before and after administration of phenylephrine hydrochloride was determined to calculate the difference (ΔAUC value) between the AUC value before the administration of phenylephrine hydrochloride and the AUC value after the administration of phenylephrine hydrochloride. The ΔAUC value obtained before administering the test compound was regarded as being 100%, and based on this, the ratio (reaction rate) of the ΔAUC value of the test compound at each dose was calculated. The dose at which the obtained reaction rate became 60% (40% as an inhibition rate) was defined as ID40, and the ID40 values of the test compounds were calculated by non-linear regression.

The next assay has as its target T3, human MC4 receptor (Homo sapiens, UniProt P32245).
T3 construct: expressed in transfected cells; host or cells: FreeStyle 293-F cells (transient, electroporation)
Nature of the assay: Human MC4 receptor activation, cAMP production in cells transiently expressing the receptor. It is filed as cell-based. Particulars: FreeStyle 293-F cells expressing human MC4 receptor, α-MSH maximum = 100%.
From the text: as §1, §2, §3, §4, §5, §6, §7
On the technique in general: cAMP levels reflect the balance of adenylyl cyclase and phosphodiesterase activity.

The target in the next assay is T4, rat MC4 receptor (Rattus norvegicus, UniProt P70596).
T4 construct: expressed in transfected cells; host or cells: FreeStyle 293-F cells (transient, electroporation)
T4 sequence (P70596 whole entry): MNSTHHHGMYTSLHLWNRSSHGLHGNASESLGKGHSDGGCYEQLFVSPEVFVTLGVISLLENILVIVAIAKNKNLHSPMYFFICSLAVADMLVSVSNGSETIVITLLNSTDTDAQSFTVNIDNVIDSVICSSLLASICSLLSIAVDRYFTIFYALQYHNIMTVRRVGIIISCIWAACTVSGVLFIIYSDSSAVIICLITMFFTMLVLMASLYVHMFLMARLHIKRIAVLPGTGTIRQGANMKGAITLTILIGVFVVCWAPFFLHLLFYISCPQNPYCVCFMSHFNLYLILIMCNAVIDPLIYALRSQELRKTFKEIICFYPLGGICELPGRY
Nature of the assay: Rat MC4 receptor activation, cAMP production in cells transiently expressing the receptor. It is filed as cell-based. Particulars: FreeStyle 293-F cells expressing rat MC4 receptor, α-MSH maximum = 100%.
From the text: (1) Construction of Rat MC4 Receptor-Expressing Vector
A rat MC4 receptor gene (GenBank Accession No.: NM_013099.3) was introduced into an expression vector pcDNA™ 3.1N/V5-His TOPO (registered trademark) (Thermo Fisher Scientific Inc.).
(2) Construction of Cells Transiently Expressing Rat MC4 Receptor
as §4, with “rat MC4” for “human MC4, MC1, or MC3”, “Inc.).” for “Inc., product number: R790-07).”, “electroporation buffer” for “Electroporation Buffer”, “Inc.),” for “Inc., product number: B201-100),”, “Inc.),” for “Inc., product number: BLC-1),”
as §5
Measurement was carried out in accordance with the attached instructions, using a LANCE (registered trademark) Ultra cAMP Kit (PerkinElmer, Inc.). That is, after dissolution in DMSO, the test compound (a final concentration of 1 pM to 30 μM) diluted with an assay buffer (Hank's balanced salt solution, 5 mM HEPES, 0.5 mM IBMX, 0.1% bovine serum albumin, pH 7.4), or α-MSH (Bachem Inc., a final concentration of 1 pM to 30 μM) was added to OptiPlate-384 (PerkinElmer, Inc.). Furthermore, the suspension of the cells transiently expressing the rat MC receptor that was prepared using the assay buffer was added thereto at 1,000 cells/well, and then left to stand at room temperature for about 1 hour. Thereafter, an Eu-cAMP tracer solution and an ULight™-anti-cAMP solution were added thereto, and the resulting solution was left to stand at room temperature for about 1 hour. The amount of cAMP was calculated using EnVision (registered trademark) (PerkinElmer Inc).
For the agonistic activity, an efficacy (EC50 (μM)) was calculated by a non-linear regression method with a Sigmoid-Emax model, by defining the maximum reaction using α-MSH as 100% and the reaction using a vehicle alone as 0%, respectively.

Setting [2] is: male Wistar rats, urethane anesthesia, intravenous, dose giving 40% inhibition of phenylephrine-induced urethral pressure ΔAUC.

SMILES strings stand for the structures. Read-outs that look alike come from different tables or passages of the source.

T3 sequence (P32245 whole entry): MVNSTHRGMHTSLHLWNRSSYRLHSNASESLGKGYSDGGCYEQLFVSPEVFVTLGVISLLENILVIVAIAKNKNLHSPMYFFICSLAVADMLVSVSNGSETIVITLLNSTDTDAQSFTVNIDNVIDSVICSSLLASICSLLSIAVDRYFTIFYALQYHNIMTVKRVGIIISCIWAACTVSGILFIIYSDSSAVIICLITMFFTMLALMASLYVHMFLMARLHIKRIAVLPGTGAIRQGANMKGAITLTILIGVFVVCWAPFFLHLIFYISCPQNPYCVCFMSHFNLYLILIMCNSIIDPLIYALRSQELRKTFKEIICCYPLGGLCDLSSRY
T1 sequence (Q01726 whole entry): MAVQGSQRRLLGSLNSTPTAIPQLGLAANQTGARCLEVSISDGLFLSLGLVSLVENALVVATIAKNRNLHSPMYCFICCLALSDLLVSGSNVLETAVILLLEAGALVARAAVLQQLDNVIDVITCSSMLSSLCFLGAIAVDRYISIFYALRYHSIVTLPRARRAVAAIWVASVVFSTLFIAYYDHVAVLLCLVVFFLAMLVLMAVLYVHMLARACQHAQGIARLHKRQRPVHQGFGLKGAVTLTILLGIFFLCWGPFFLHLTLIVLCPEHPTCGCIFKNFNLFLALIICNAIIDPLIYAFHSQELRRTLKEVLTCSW
T2 sequence (P41968 whole entry): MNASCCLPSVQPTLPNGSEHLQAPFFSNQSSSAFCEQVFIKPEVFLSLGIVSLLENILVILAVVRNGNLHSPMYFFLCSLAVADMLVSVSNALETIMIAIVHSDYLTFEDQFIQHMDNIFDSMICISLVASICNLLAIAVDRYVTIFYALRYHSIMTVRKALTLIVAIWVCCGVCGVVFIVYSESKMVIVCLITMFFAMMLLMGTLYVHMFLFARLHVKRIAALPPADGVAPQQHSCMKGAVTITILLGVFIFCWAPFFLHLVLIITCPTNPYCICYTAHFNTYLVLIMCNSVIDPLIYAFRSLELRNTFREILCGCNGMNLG

For orientation: EC50 means the concentration needed to bring the measured effect to its halfway point. A lower EC50 goes with higher potency in that assay. Take `CC(=O)N[C@@H](CC(C)(C)C)C(=O)N1C[C@H](C)N(C(=O)[C@@H]2CN(C3CCOCC3)C[C@H]2c2ccc(Cl)cc2F)C[C@H]1C` [Example 3]: the concentration for a half-maximal effect (EC50) was determined as 5700 nM at human MC1 receptor, 310 nM on human MC3 receptor and 8 nM at human MC4 receptor. In addition, in assay [1] (iv), the ED40 stood at 8.9 mg/kg.
As for `CC(=O)N[C@@H](CC1CCCC1)C(=O)N1CCN(C(=O)[C@@H]2CN(C(C)(C)C)C[C@H]2c2ccc(F)cc2F)[C@@H](C)C1.Cl` [Example 16, N-((2S)-1-[(3S)-4-{[(3S,4R)-1-tert-butyl-4-(2,4-difluorophenyl)pyrrolidin-3-yl]carbonyl}-3-methylpiperazin-1-yl]-3-cyclopentyl-1-oxopropan-2-yl) acetamide monohydrochloride], in assay [1] (setting [2]), the ED40 turned out to be 11 mg/kg. Further, the EC50 at human MC4 receptor was 14 nM.
Turning to `CC(=O)N[C@@H](CC(C)(C)C)C(=O)N1CCN(C(=O)[C@@H]2CN(C3CCOCC3)C[C@H]2c2ccc(Cl)cc2F)[C@@H](C)C1.Cl` [Example 20, N-{(2S)-1-[(3S)-4-{[(3 S,4R)-4-(4-chloro-2-fluorophenyl)-1-(tetrahydro-2H-pyran-4-yl)pyrrolidin-3-yl]carbonyl}-3-methylpiperazin-1-yl]-4,4-dimethyl-1-oxopentan-2-yl}acetamide monohydrochloride], the EC50 on human MC1 receptor is 8000 nM; on human MC3 receptor it was 1200 nM; at human MC4 receptor it was 23 nM; on rat MC4 receptor, 7.6 nM. Besides, the ED40 in assay [1] (setting [2]) was 40 mg/kg.
